Measurements as given in ChEMBL document CHEMBL5352451, “Novel rhodanine based inhibitors of aldose reductase of non-acidic nature with p-hydroxybenzylidene functional group” (Eur J Med Chem, 2023).

Legend:
[1] = biological target: Aldo-keto reductase family 1 member B1 (Homo sapiens, UniProt P15121); test: Inhibition of ALR2 (unknown origin)
[2] = Inhibition of rat eye lens ALR2 using DL-glyceraldehyde by measuring NADPH consumption by spectrophotometric analysis; type: tissue-based
[3] = species: Rattus norvegicus; test: Selectivity index, ratio of IC50 for rat kidney ALR1 to IC50 for rat eye lens ALR2
[4] = biological target: Aldo-keto reductase family 1 member A1 (Rattus norvegicus, UniProt P51635); test: Inhibition of rat kidney ALR1 using D-glucuronate by measuring NADPH consumption by spectrophotometric analysis; type: tissue-based
Sequence of Aldo-keto reductase family 1 member A1 (P51635 whole entry, looked up): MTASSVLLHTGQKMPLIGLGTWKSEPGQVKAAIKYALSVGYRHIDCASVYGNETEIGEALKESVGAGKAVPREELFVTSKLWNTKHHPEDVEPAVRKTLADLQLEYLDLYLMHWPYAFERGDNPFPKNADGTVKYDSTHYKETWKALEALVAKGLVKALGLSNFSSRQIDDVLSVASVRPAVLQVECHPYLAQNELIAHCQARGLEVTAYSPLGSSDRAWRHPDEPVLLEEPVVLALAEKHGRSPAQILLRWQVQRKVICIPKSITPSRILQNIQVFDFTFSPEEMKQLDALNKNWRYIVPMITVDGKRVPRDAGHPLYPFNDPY

For `COc1ccc2nc(/N=C3\NC(=O)/C(=C/c4ccc(O)cc4)S3)sc2c1`, the IC50 [1] was 1300 nM.
`COC(=O)CN1C(=O)S/C(=C\c2ccc(O)cc2)C1=O` showed an IC50 [1] of 6180 nM.
`O=C1/C(=C/c2ccc(O)cc2)SC(=S)N1/N=C/c1ccc(O)cc1` gave an IC50 [2] of 22 nM, a pIC50 [2] of 7.66 and a Ratio IC50 [3] of 5. For the same compound, the IC50 [4] was 116 nM.
`O=C1/C(=C/c2ccc(O)cc2)SC(=S)N1/N=C/c1ccc(F)cc1` gave an IC50 [2] of 27 nM, a pIC50 [2] of 7.57 and a Ratio IC50 [3] of 8. For the same compound, the IC50 [4] was 228 nM.
For `O=C(CN1C(=O)S/C(=C\c2ccc(O)cc2)C1=O)Nc1ccccc1O`, the IC50 [1] was 950 nM.
In the case of `O=C1S/C(=C\c2ccc(O)cc2)C(=O)N1CC(=O)C(F)(F)F`, the IC50 [1] is reported as 3000 nM.
`CC(/C=C1\SC(=S)N(CC(=O)O)C1=O)=C\c1ccccc1` [EPALRESTAT] gave an IC50 [2] of 250 nM and a pIC50 [2] of 6.6.
`O=C1/C(=C/c2ccc(O)cc2)SC(=S)N1/N=C/c1ccccc1` showed an IC50 [2] of 892 nM, a pIC50 [2] of 6.05 and a Ratio IC50 [3] of 24. For the same compound, the IC50 [4] was 21100 nM.
With `O=C1/C(=C/c2ccc(O)cc2)SC(=S)N1/N=C/c1ccccc1Cl` the IC50 [2] was 149 nM, the pIC50 [2] was 6.83 and the Ratio IC50 [3] was 12. For the same compound, the IC50 [4] was 1760 nM.
Work on `COc1ccc(/C=N/N2C(=O)/C(=C/c3ccc(O)cc3)SC2=S)cc1` yielded an IC50 [2] of 2150 nM, a pIC50 [2] of 5.67 and a Ratio IC50 [3] of over 11. It also gave an IC50 [4] of over 25000 nM.
Work on `O=C(CN1C(=O)S/C(=C\c2ccc(O)cc2)C1=O)NO` yielded an IC50 [1] of 1790 nM.
Work on `Cc1ccccc1/C=N/N1C(=O)/C(=C/c2ccc(O)cc2)SC1=S` yielded an IC50 [2] of 53 nM, a pIC50 [2] of 7.28 and a Ratio IC50 [3] of 12. For the same compound, the IC50 [4] was 635 nM.
